In US6383773B2, “Penicillin conversion” (Massachusetts Institute of Technology, priority 1998, dated 2002):

Tests used:
[1] = molecular target: T1, expandase from N. lactamdurans (Amycolatopsis lactamdurans, UniProt Q03047); assay: Ring expansion by cell-free extracts of S. lividans containing pUL702-202a (Example 7); format: biochemical; conditions: S. lividans pUL702-202a cell-free extract 6 mg/ml protein, substrate 5.6 mM, after 2 h of reaction
T1 construct: made in house; host or cells: S. lividans 1326 transformed with pUL702-202a, crude cell-free extract
T1 sequence (Q03047 whole entry): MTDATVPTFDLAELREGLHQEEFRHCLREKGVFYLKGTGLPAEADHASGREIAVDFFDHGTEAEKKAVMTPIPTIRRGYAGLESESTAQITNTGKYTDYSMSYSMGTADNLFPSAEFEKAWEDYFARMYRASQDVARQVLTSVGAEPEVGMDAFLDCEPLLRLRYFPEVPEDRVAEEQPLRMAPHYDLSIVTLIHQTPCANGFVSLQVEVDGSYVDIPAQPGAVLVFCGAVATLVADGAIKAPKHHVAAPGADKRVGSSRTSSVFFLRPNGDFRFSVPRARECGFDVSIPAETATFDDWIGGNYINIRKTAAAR
Description: (§1) Microorganism, Medium and Culture Conditions: S. lividans 1326 was used in all experiments. Cultures were grown in 250 ml baffled flasks containing 40 ml of MST medium. Each flask was inoculated with 50 μl of a spore suspension (prepared and stored at −80° C. in 20% glycerol) and incubated at 30° C., 250 rpm, for 48 h.
(§2) Plasmids: The plasmid pUL702-202a was a gift from J. F. Martin (University of León, Spain). This vector harboured a 4.3 Kb BglII fragment containing the epimerase and expandase genes from Nocardia lactamdurans inserted at the BglII site on pIJ702. The plasmid pHJ11 was constructed by cloning a 3 Kb BglII fragment containing the expandase gene from S. clavuligerus 3585 into pIJ702 at the BglII site.
(§3) Ring Expansion Reaction: The ring expansion mixture contained 1.8 mM FeSO4, 1.28 mM α-ketoglutarate, 6 mg/ml protein (cell-free extract), 8 mM KCl, 8 mM MgSO4, 14 mM DTT and 50 mM TrisHCl (pH 7.4) in a final volume of 2.5 ml. Substrate concentration was 5.6 mM. Additions were made following the order established by Shen et al. (Enzyme Microb. Technol. 6:402-404, 1984). Reaction mixtures were incubated in test tubes at 220 rpm, 30° C. At different times, 0.5 ml samples were taken and the reaction was stopped by adding 0.5 ml of methanol. […] Biotransformation activity was detected by paper disc-agar diffusion bioassay. […]

[2] = tested on: growing S. clavuligerus NP1 cells; assay: Conversion of penicillin G into DAOG by growing cells (Example 2); format: cell-based
Description: Media: Seed culture was prepared using 250 ml baffled flasks containing 40 ml MST medium (90 mM MOPS, 3% Trypticase Soy Broth without Dextrose, 1% soluble starch) adjusted to pH 7.0 before autoclaving. Fermentation was carried out in the same medium or in the defined medium described by Mahro and Demain (1987) containing, per liter, 5 g MOPS; 3.5 g K2 HPO4; 1 ml trace solution containing 1 mg FeSO4.7H2O, 1 mg, MnCl2.4H2O, 1 mg ZnSO4.H2O and 1 mg CaCl2; 2 g L-asparagine; 0.6 g MgSO4.7H2O; 10 g glycerol; initial pH 7.0.
Culture Conditions: For the seed culture, each flask was inoculated with 50 μl of a spore suspension (prepared and stored in 20% glycerol at −80° C.) and incubated at 30° C. for 48 h. Fermentation were conducted in 250 ml baffled flasks containing 30 ml of medium at 30° C. at 250 rpm. Fermentations were started by transferring 1.5 ml of unwashed mycelium from the seed culture and their duration was 5 days. Once a day, samples were taken for pH, biomass and antibiotic analyses. Growth was measured as dry cell weight.
Bioassay: Cephalosporin type antibiotic(s) were detected by bioassay using Escherichia coli Ess seeded in LB (1% Tryptone, 0.5% NaCl, 0.5% Yeast Extract, 0.1% Glucose) 0.8% agar medium in the presence of penicillinase (Difco Laboratories, Detroit, Mich.). This is a narrow spectrum β-lactamase that destroys all kinds of penicillins but not cephalosporins. Assays were conducted with filter paper discs saturated with 100 μl of standard (deacetoxycephalosporin G) or supernatants from the fermentation flask. The diameters of zones of growth inhibition were measured after overnight incubation at 37° C.

[3] = tested on: resting S. clavuligerus NP1 cells; assay: Penicillin G conversion by resting cells: buffer, preincubation, substrate concentration (Example 4); format: cell-based
Description: Microorganisms, Media, and Culture Conditions: S. clavuligerus mutant NP-1, described in Example 1 was used for these studies. A seed culture was made by inoculating a spore suspension (40 μl) into 40 ml MST medium in 250 ml baffled flasks, and incubating for 2 days at 30° C. and 250 rpm. One ml of the seed culture was used as inoculum for the main culture which contained 80 ml of MST medium in 500 ml unbaffled flasks. The flasks were incubated for 24 h at 30° C. and 250 rpm.
Preparation of Resting Cells: Cells were harvested by centrifugation at 14,000×g, for 15 min at 4° C. and washed twice with cold deionized water. They were resuspended in 10 ml of water.
Ring Expansion Reaction: The standard reaction mixture (10 ml) contained 0.05 M Tris-HCl pH 7.4, 8.0 mM KCl, 8.0 mM MgSO4.7H2O, 4.0 mM ascorbic acid, 1.8 mM FeSO4.7H2O, 1.28 mM α-ketoglutaric acid, 20 mg/ml penicillin G and 4.0 ml cell suspension. The order of addition of the components were as previously described (Shen et al., Enzyme Microb. Technol. 6:402-404, 1984). The reaction started when penicillin G was added to the reaction mixture which was incubated at 30° C. and 220 rpm.
Expandase Assay: Product formation was estimated by the paper disk-agar diffusion bioassay as described in example 1, using deacetoxycephalosporin G as standard. Escherichia coli strain Ess, a β-lactam supersensitive, mutant was used as the assay microorganism.

[4] = molecular target: T2, expandase from S. clavuligerus (Streptomyces clavuligerus, UniProt P18548); assay: Ring expansion by cell-free extracts of S. lividans transformant pHJ11 (Example 7); format: biochemical; conditions: pHJ11 cell-free extract 6 mg/ml protein, substrate 5.6 mM, after 4 h of reaction
T2 construct: made in house; host or cells: S. lividans 1326 transformed with pHJ11, crude cell-free extract
T2 sequence (P18548 whole entry): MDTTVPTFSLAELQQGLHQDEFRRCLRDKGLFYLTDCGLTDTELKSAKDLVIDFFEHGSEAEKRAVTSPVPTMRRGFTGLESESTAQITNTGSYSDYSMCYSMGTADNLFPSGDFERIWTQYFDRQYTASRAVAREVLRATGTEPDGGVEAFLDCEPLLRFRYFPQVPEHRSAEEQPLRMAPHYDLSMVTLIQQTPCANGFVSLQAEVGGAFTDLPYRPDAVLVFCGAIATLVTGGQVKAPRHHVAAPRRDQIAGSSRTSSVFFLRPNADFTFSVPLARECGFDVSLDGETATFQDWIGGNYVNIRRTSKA
Description: as §1, §2, §3

[5] = MST supplemented with 50 μg penicillin G/ml, after 72 hours of incubation
[6] = defined medium, 50 μg/ml penicillin G, after 48 hours
[7] = defined medium, 100 μg/ml penicillin G, after 48 hours

CC1(C)S[C@@H]2[C@H](NC(=O)Cc3ccccc3)C(=O)N2[C@H]1C(=O)O [Penicillin G, penicillin G]
production of cephalosporins [1]: approximately 8 μg/ml
cephalosporin produced [2, 5]: 10.5 μg cephalosporin/ml
conversion [2, 5]: approximately 21%
conversion ([2]; MST supplemented with 100 μg penicillin G/ml, after 96 hours): the same level of conversion
cephalosporin produced [2, 6]: 4.55 μg cephalosporin/ml
conversion rate [2, 6]: 9.1%
cephalosporin produced [2, 7]: 10.5 μg cephalosporin/ml
conversion rate [2, 7]: 10.5%
percent conversion ([3]; 0.015 mg/ml substrate, subsequent experiments): ≤ 16.5%
percent conversion ([3]; 0.063 mg/ml of penicillin G): about 9.0%
percent conversion ([3]; 2 mg/ml of penicillin G): about 1.0%
percent conversion ([3]; 8 mg/ml of penicillin G): about 0.4%
increase of cephalosporin production versus 0.05 M Tris-HCl pH 7.4 ([3]; 0.05 M MOPS pH 6.5 or 0.05 M HEPES pH 6.5): more than two-fold
penicillin G conversion ([3]; cells preincubated 3 hours with Fe2+ and ascorbic acid, with or without α-ketoglutarate): virtually eliminated
reduction of total production ([3]; cells preincubated 3 hours with either buffer, Fe2+, ascorbic acid, or α-ketoglutarate): about 50%
production of cephalosporins [4]: about 7 μg/ml
